These results are taken from PMC4512978, “Synthesis and evaluation in rats of homologous series of [^18F]-labeled dopamine D2/3 receptor agonists based on the 2-aminomethylchroman scaffold as potential PET tracers” (EJNMMI Research, 2015).

Several values for one entry are separate records, joined by “and”; a condition that tells them apart may be missing. Equal values may be shown once.

Series [1] in a line: LogD measurement (n-octanol/phosphate buffer). The class given is physicochemical. The settings on record: n-octanol / 1 M phosphate buffer pH 7.4. As for the experimental part: LogD of the tracers was measured using the radioactivity remaining on the HLB SPE cartridges after their elution with ethanol during the tracer formulation procedure (see above). The cartridge was dried with nitrogen for 5 min and eluted with at least 1.5 mL n-octanol. A 500 μL portion of octanol eluate was mixed with 500 μL of 1 M phosphate buffer (pH 7.4) and vigorously vortexed for 5 min. The mixture was then centrifuged at 17,000g for 10 min and 3 × 100 μL aliquots of organic and aqueous phase were loaded into a gamma-counter for radioactivity measurement. To correct for possible presence of radioactive impurities in the tracer, aliquots of organic and aqueous phases were later analyzed by radio-TLC, and the counts obtained from the gamma-counter were corrected according to the percentage of impurities found in aqueous and organic phases. LogD was calculated with the following formula: LogD=lgCPMorg×Xorgtracer/CPMaq×Xaqtracer,
where CPMorg is the mean radioactivity of the organic aliquots, Xorgtracer is the mean percentage of radioactivity accounting for intact tracer in organic aliquots (as determined from radio-TLC), and CPMaq and Xaqtracer are the corresponding values for the aqueous phase.
For each tracer batch used for logD determination, the experiment was performed in duplicate. LogD values are means calculated from at least two independent experiments.

A further series has as its system D2/3R. Kind of series: MicroPET study in rats. The settings on record: for blood-brain barrier penetration: PET in rats; for Brain uptake, peak: 3 min after radiotracer injection, control rats; for Striatum-to-cerebellum uptake ratio (PET): saline pre-treated rats, peak (45 min post-injection for [^18F]FEt-AMC13 and [^11C]raclopride). The series is classed as in vivo, Sprague-Dawley rats. The method, then: Animal experiments were performed by licensed investigators in compliance with the Law on Animal Experiments of The Netherlands. The protocol was approved by the Committee on Animal Ethics of the University of Groningen. Young male (10–12 weeks of age, 300–350 g body weight) Sprague-Dawley rats (Harlan, the Netherlands) were used for all experiments. The rats were maintained at a 12-h light/12-h dark regime and were fed standard laboratory chow ad libitum.
Distribution of the radiotracers was studied in rats pre-treated, at random, with physiological saline (controls) or raclopride tartrate (1 mg/kg calculated per raclopride base, equivalent to 2.9 μmol/kg). Saline and raclopride were administered intravenously (1 mL/kg injected volume).
An additional group of saline pre-treated rats, injected with [^11C]raclopride, served as positive controls for D2/3R-specific brain uptake.
Two rats were scanned simultaneously. Before all manipulations, animals were anesthetized with a mixture of isoflurane/air (inhalation anesthesia, 5 % ratio during induction, 2 % at maintenance). Cannulae were placed into the rats’ left femoral arteries and veins; the operation took 45–50 min. The rats were positioned supine inside the camera (Focus 220 microPET, Siemens-Concorde), one above the other with their heads in the camera’s field of view. A 515-s transmission scan with a Co-57 point source was performed. Tracer was injected through the venous cannula as a slow bolus (1 mL volume, 60 s long) using an infusion pump. The second (upper) animal was injected 16 min after the first (lower).
PET acquisition was started during the injection of radioactivity in the first rat. A 106-min long (76 min long in the case of [^11C]raclopride) list-mode acquisition protocol was used for the scan.
List-mode data from the 106-min-long and 76-min-long scans were reframed into, respectively, 90-min-long and 60-min-long dynamic sequences of 6 × 10, 4 × 30, 2 × 60, 1 × 120, 1 × 180, 4 × 300, 3 × 600, and (for 90-min-long scans) 2 × 900 s frames. The data were reconstructed per time frame using an iterative reconstruction algorithm (attenuation-weighted 2-dimensional ordered-subset expectation maximization, provided by Siemens; 4 iterations, 16 subsets; zoom factor 2). Datasets were fully corrected for random coincidences, scatter, and attenuation. Data from the transmission scan were used for attenuation correction. The final datasets consisted of 95 slices, with a slice thickness of 0.8 mm and an in-plane image matrix size of 128 × 128 and pixel size of 0.47 × 0.47 mm.
Reconstructed images were analyzed with Inveon 2.0 software (Siemens Medical Solutions, USA, Inc). Regions of interest (ROIs) were drawn manually on a T2-weighted MRI template of rat brain around the striatum, brainstem, cortex, hippocampus, hypothalamus, thalamus, olfactory bulbs, and cerebellum around the whole brain and around the pituitary gland. The MRI template was co-registered with the PET scan by image fusion. The time-activity curves (TAC) per ROI were determined in Bq/cm^3 units and converted into standardized uptake values (SUVs).
Degree of D2/3R-specific binding of the tracers was characterized by BPND (as given above) or the specific binding ratio (SBR) given as target region activity/cerebellar activity - 1. Both were calculated under control conditions and in response to the raclopride challenge.

The nature of series [2]: Tracer metabolism in plasma and brain extract (radio-TLC). The class given is in vivo, rats. The conditions noted are these: for metabolism in plasma: living rats. As for the experimental part: Throughout the scan, arterial blood samples (15–19 samples; 0.10–0.15 mL each) were withdrawn from each rat through the arterial cannula. […] From each sample, 25 μL aliquots of whole blood were withdrawn. The rest was centrifuged at 3500 g for 5 min; 25 μL supernatant (plasma) aliquots were withdrawn and deproteinated with 75 μL of ice-cold acetonitrile. From the resulting 100 μL, 2–8 μL portions (i.e., 2–8 % of volume) were taken for thin layer chromatography analysis (radio-TLC) to assess radiometabolite content.
The radioactivity of the plasma and whole blood samples was measured using a well-type gamma-counter (LKB-1282-Compugamma, LKB Wallac).
Radio-TLC was performed on silica plates. Samples of the formulated tracers (diluted) were run along with deproteinated plasma samples to confirm the identity of the parent compound in plasma. Eluent systems used and TLC Rf values recorded are presented in Additional file 1: Table S1.
Another half of the brain was homogenized in 3 mL of ice-cold acetonitrile using Heidolph IDAX600 homogenizer at maximum speed. Homogenate was centrifuged at 3500g for 5 min, and the supernatant (containing >95 % total radioactivity) was analyzed by radio-TLC in the same way as described above for the plasma.

A word on the logD: it is the decadic logarithm of the distribution of all forms, ionised or not, between an organic phase and buffer at a given pH. A lower logD goes with lower lipophilicity. The compound `Oc1ccc2c(c1)O[C@@H](CNCc1ccc(OCC[18F])cc1)CC2` [[^18F]FEt-AMC13] registered a logD in series [1] of 1.67 ± 0.07. The “decrease in D2/3R-specific binding in the striatum in vivo” value in the series with D2/3R (1 mg/kg (2.9 μmol/kg) raclopride, range over estimates) is on record as 17–39%. The “decrease of peak PET-based striatal SBR” value with D2/3R (1 mg/kg raclopride, p = 0.25) is listed as 17%. Moreover, in the series on D2/3R, the blood-brain barrier penetration entry is recorded as “good blood-brain barrier (BBB) penetration”; the “Striatum-to-cerebellum uptake ratio (PET)” value is 2.08 and 2.1 and 2.08 ± 0.25. In addition, the “Brain uptake, peak” value with D2/3R (PET) was 0.7 % ID. Besides, the “D2/3R occupancy by the tracer itself (crude estimation)” value in the series on D2/3R (approach of Skinbjerg et al., all experiments) is listed as “no more than 3%”. Further, the “peak PET-based striatal SBR” value in the series on D2/3R (pre-treatment with 1 mg/kg (2.9 μmol/kg) raclopride) was determined as 0.90 ± 0.11. In the series with D2/3R (saline pre-treated), the “peak PET-based striatal SBR” value is 1.08 ± 0.25. The “intact tracer in radioactivity of brain tissue extract” value in series [2] (35 min post-injection) stood at 92%. The metabolism in plasma result in series [2] is “quickly metabolized in the plasma”. Also, in series [2] (rat, in vivo), the “entry of radiometabolites into the brain” value is listed as “did not enter the brain”.
`Oc1ccc2c(c1)O[C@@H](CNCCN1CCN(c3ccc(OCC[18F])cc3)CC1)CC2` [[^18F]FEt-AMC15, (R) 1-(4-(2-[^18F]fluoroethoxy)phenyl)-4-(4-(7-hydroxychroman-2-yl)-3-azabutyl)-piperazine]: the logD in series [1] worked out at 1.48 ± 0.002. For the same compound, in the series with D2/3R (1 mg/kg raclopride), the “effect of raclopride pre-treatment on radioactivity distribution in the brain” value was “no detectable alterations of radioactivity distribution in the brain”. Moreover, the blood-brain barrier penetration result in the series with D2/3R is “essentially did not penetrate the BBB”. Besides, the “Brain uptake, peak” value with D2/3R (PET) came to 0.2 % ID. Besides, the Brain uptake in the series with D2/3R (PET, 60 min post-injection) was found to be 0.04 % ID. Also, the metabolism in plasma result in series [2] is “more stable”.
The compound `Oc1ccc2c(c1)O[C@@H](CNCc1ccc(OCCCC[18F])cc1)CC2` [[^18F]FBu-AMC13, (R)-2-[(4-(4-[^18F]fluorobutoxy)benzylamino)methyl]chroman-7-ol] gave a logD in series [1] of 2.5 ± 0.06. In the series on D2/3R, the blood-brain barrier penetration entry is recorded as “good blood-brain barrier (BBB) penetration” and the “Striatum-to-cerebellum uptake ratio (PET)” value is listed as 1.41 ± 0.08. The “Brain uptake, peak” value in the series on D2/3R (PET) is 0.9 % ID. The metabolism in plasma entry in series [2] was “quickly metabolized in the plasma”.
